Measurements published in US11760722B2 (priority 2022, dated 2023).
pEC50, pIC50: −log10 of the molar value.

Legend:
COVID-19 WT Mpro = target: T1, COVID-19 WT Mpro (Severe acute respiratory syndrome coronavirus 2, UniProt P0DTD1); experiment: biochemical; details: WT Mpro 25 nM, substrate 25 μM, 30 min pre-incubation; several values in a cell = repeat determinations
T1 construct: The C-His6-tagged COVID-19 WT Mpro (NC_045512); His6 (C); host or cells: E. coli

SARS-CoV-2 replicon = experiment: microbe, parasite or virus in culture; assay type: cell-based; details: Severe acute respiratory syndrome coronavirus 2, Huh-7, 24 h; read-out: Replicon EC50
[1] = system: human coronavirus (HCoV) 229E; experiment: microbe, parasite or virus in culture; assay type: cell-based, human coronavirus 229E; details: unidentified human coronavirus, 72 h, MRCS cells, HCoV 229E, 3 days, CellTiter Glo; read-out: 229E CPE EC50

Structure (SMILES)	pIC50 (COVID-19 WT Mpro)	pEC50 (SARS-CoV-2 replicon)	pEC50 [1]
CC(C)(C)[C@H](NC(=O)c1c(F)c(F)c(F)c(F)c1F)C(=O)N1C[C@H]2[C@@H]([C@H]1C(=O)N[C@H](C#N)C[C@@H]1CCNC1=O)C2(C)C [Compound 30]	6.15	5.45	5.75
CC(C)(C)[C@H](NC(=O)c1cn2ccccc2n1)C(=O)N1C[C@H]2[C@@H]([C@H]1C(=O)N[C@H](C#N)C[C@@H]1CCNC1=O)C2(C)C [Compound 31]	5.56	4.65	< 4.52
CC(C)(C)OC(=O)N1c2ccccc2CC1C(=O)N[C@H](C(=O)N1C[C@H]2[C@@H]([C@H]1C(=O)N[C@H](C#N)C[C@@H]1CCNC1=O)C2(C)C)C(C)(C)C (stereo partly drawn) [Compound 36]	6.21	5.56	4.81
CC(C)(C)OC(=O)N1[C@@H](C(=O)N[C@H](C(=O)N2C[C@H]3[C@@H]([C@H]2C(=O)N[C@H](C#N)C[C@@H]2CCNC2=O)C3(C)C)C(C)(C)C)C[C@H]2CCCC[C@H]21 [Compound 37]	5.67	5.35	< 4.52
CN(C(=O)OC(C)(C)C)C(C)(C)C(=O)N[C@H](C(=O)N1C[C@H]2[C@@H]([C@H]1C(=O)N[C@H](C#N)C[C@@H]1CCNC1=O)C2(C)C)C(C)(C)C [Compound 38]	5.01	< 4.52	< 4.52
CN(C)C(=O)N[C@H](C(=O)N1C[C@H]2[C@@H]([C@H]1C(=O)N[C@H](C#N)C[C@@H]1CCNC1=O)C2(C)C)C(C)(C)C [Compound 39, (1R,2S,5S)—N—((S)-1-cyano-2-((S)-2-oxopyrrolidin-3-yl)ethyl)-3-((S)-2-(3,3-dimethylureido)-3,3-dimethylbutanoyl)-6,6-dimethyl-3-azabicyclo[3.1.0]hexane-2-carboxamide]	6.38	4.76	< 4.52
CC(C)(C)[C@H](NC(=O)c1nc2ccccc2[nH]1)C(=O)N1C[C@H]2[C@@H]([C@H]1C(=O)N[C@H](C#N)C[C@@H]1CCNC1=O)C2(C)C [Compound 41]	5.10	< 4.52	< 4.52
